Reference: the NIST ThermoML archive (doi:10.1021/je500886a)
± gives the expanded uncertainty stated by the source.

Assay: mn = molality of the nth substance listed, in mol/kg
Details: 101 kPa, Liquid

OC[C@@H](O)C(O)[C@H](O)CO [D-arabitol] + O
Details | mass density, 288.15 K [kg/m3] | mass density, 298.15 K [kg/m3] | mass density, 308.15 K [kg/m3] | mass density, 318.15 K [kg/m3] | viscosity, 288.15 K [mPa·s] | viscosity, 298.15 K [mPa·s] | viscosity, 308.15 K [mPa·s] | viscosity, 318.15 K [mPa·s]
m1 = 0.05025 | – | – | – | – | 1.162 ± 0.022 | 0.906 ± 0.017 | 0.73 ± 0.014 | 0.604 ± 0.012
m1 = 0.0542 | 1001.87 ± 0.23 | 999.73 ± 0.23 | 996.7 ± 0.23 | 992.83 ± 0.24 | – | – | – | –
m1 = 0.06886 | – | – | – | – | 1.172 ± 0.022 | 0.913 ± 0.017 | 0.735 ± 0.014 | 0.608 ± 0.012
m1 = 0.07304 | 1002.82 ± 0.23 | 1000.65 ± 0.23 | 997.61 ± 0.23 | 993.72 ± 0.24 | – | – | – | –
m1 = 0.08867 | 1003.59 ± 0.24 | 1001.41 ± 0.23 | 998.35 ± 0.23 | 994.45 ± 0.24 | – | – | – | –
m1 = 0.09155 | – | – | – | – | 1.183 ± 0.022 | 0.92 ± 0.018 | 0.74 ± 0.015 | 0.611 ± 0.012
m1 = 0.1053 | 1004.4 ± 0.24 | 1002.21 ± 0.23 | 999.14 ± 0.23 | 995.22 ± 0.24 | – | – | – | –
m1 = 0.1061 | – | – | – | – | 1.189 ± 0.022 | 0.925 ± 0.018 | 0.744 ± 0.015 | 0.613 ± 0.012
m1 = 0.1258 | – | – | – | – | 1.198 ± 0.022 | 0.931 ± 0.018 | 0.748 ± 0.015 | 0.617 ± 0.013
m1 = 0.1323 | 1005.72 ± 0.24 | 1003.5 ± 0.24 | 1000.41 ± 0.23 | 996.46 ± 0.23 | – | – | – | –
m1 = 0.1507 | – | – | – | – | 1.209 ± 0.022 | 0.94 ± 0.018 | 0.754 ± 0.015 | 0.621 ± 0.013
m1 = 0.1512 | 1006.64 ± 0.24 | 1004.39 ± 0.24 | 1001.3 ± 0.23 | 997.33 ± 0.23 | – | – | – | –
